According to US7790474B1, “p53 modulators” (Schering Corporation, priority 2005, dated 2010):

Tested on: GST-p53 DNA binding domain (aa 92-aa 312)
Experiment: Scintillation Proximity Assay (displacement of 3H-labeled p53 binder)
Conditions: percentage of 3H-labeled ligand remaining bound, number in brackets = average of n
Procedure: [drawing 38] (^3H at C bearing the chlorophenyl groups and the piperazinyl group), a radiolabeled small molecule which binds to p53, and the GST-p53 DNA binding domain (aa 92-aa 312), a quantitative screening assay was used to determine if various molecules comprise p53 binding activity. The assay is based on Scintillation Proximity Assay (SPA) technology. The complex of GST-p53,
[drawing 39] and Glutathione-SPA beads (Amersham Biosciences) were incubated with mixing for 1 hour at room temperature in the presence of the compounds to be screened. The signal was read on a Microbeta.
The numerical values expressed refer to the percentage of labeled
[drawing 40] remaining bound to the mutant p53 protein after exposure to the indicated compound.

SMILES | SPA ASSAY % Residual T @ 2 ug/mL of drug (Average of)
CC(C)COC(=O)[C@H](CCCN(C)C)Nc1nc(CN2CCN(C(c3ccc(Cl)cc3)c3ccc(Cl)cc3)CC2)nc2ccccc12 [Formula 117] | 72.5%
CN(C)CCCNc1nc(CN2CCN(C(c3ccc(Cl)cc3)c3ccc(Cl)cc3)CC2)nc2ccccc12 [Formula 8] | 16.1%
CN(C)CCCNc1nc(CN(C)Cc2cccc3c2OCO3)nc2ccccc12 [Formula 81] | 46.8%
CN(C)CCCNc1nc(CN(C)C2CCC(C(C)(C)C)CC2)nc2ccccc12 (stereo not drawn) [Formula 103] | 7.8 (2) %
Clc1ccc(C(c2ccc(Cl)cc2)N2CCN(Cc3nc(N4CCOCC4)c4ccccc4n3)CC2)cc1 [Formula 41] | 63.1%
O=c1[nH]c2ccccc2n1C1CCN(c2nc(CN3CCN(C(c4ccc(Cl)cc4)c4ccc(Cl)cc4)CC3)nc3ccccc23)CC1 [Formula 18] | 47.9%
CN(CCc1ccccn1)c1nc(CN2CCN(C(c3ccc(Cl)cc3)c3ccc(Cl)cc3)CC2)nc2ccccc12 [Formula 45] | 61.6%
Cc1cc(C)c(NC(=O)N2CCN(Cc3nc(NCCCN(C)C)c4ccccc4n3)CC2)c(C)c1 [Formula 39] | 53.0%
COc1ccc(/C=C/c2nc(NCCCN(C)C)c3ccccc3n2)cc1 [Formula 114] | 61.3%
CN(C)CCCC[C@H](Nc1nc(CN2CCN(C(c3ccc(Cl)cc3)c3ccc(Cl)cc3)CC2)nc2ccccc12)C(N)=O [Formula 119] | 58.5%
CN(C)CCCNc1nc(CN2CCN(C(=O)Nc3ccc(C#N)cc3)CC2)nc2ccccc12 [Formula 40] | 52.5%
CN(C)CCCNc1nc(CN2CCN(C(c3ccccc3)c3ccc(OC(F)(F)F)cc3)CC2)nc2ccccc12 (stereo not drawn) [Formula 10] | 46.1%
CN(C)CCCNc1nc(CN(C)Cc2cc(Cl)ccc2Cl)nc2ccccc12 [Formula 87] | 49.5 (3) %
COC(=O)C1CCN(c2nc(CN3CCN(C(c4ccc(Cl)cc4)c4ccc(Cl)cc4)CC3)nc3ccccc23)CC1 [Formula 53] | 62.7%
CC1CCC(N(C)Cc2nc(NCCCN(C)C)c3ccccc3n2)CC1 (stereo not drawn) [Formula 99] | 56.5%
CC(=O)N1CCC(N(C)Cc2nc(NCCCN(C)C)c3ccccc3n2)CC1 [Formula 101] | 47.7 (3) %
Clc1ccc(C(c2ccc(Cl)cc2)N2CCN(Cc3nc(N4CCN(c5ncccn5)CC4)c4ccccc4n3)CC2)cc1 [Formula 47] | 85.0%
CC(CCN(C)Cc1nc(NCCCN(C)C)c2ccccc2n1)c1ccccc1 (stereo not drawn) [Formula 79] | 67.6%
CN(C)CCCNc1nc(CN(C)C2CCN(C(=O)c3ccccc3)CC2)nc2ccccc12 [Formula 110] | 20.7 (2) %
COc1ccc(CN(C)Cc2nc(NCCCN(C)C)c3ccccc3n2)cc1 [Formula 73] | 44.4%
COc1ccc(Cl)cc1NC(=O)NCc1nc(N[C@H](C(N)=O)C(C)C)c2ccccc2n1 [Formula 60] | 60.0%
CN(C)CCCNc1nc(CN(C)C2CCC(C(F)(F)F)CC2)nc2ccccc12 (stereo not drawn) [Formula 106] | 52.8%
COC(=O)[C@@H](Nc1nc(CN2CCN(C(=O)Nc3ccc(C(C)C)cc3)CC2)nc2ccccc12)C(C)C [Formula 11] | 39.5%

SMILES | SPA ASSAY % Residual T @ 2 ug/mL of drug (Average of)
CN(C)CCCOc1nc(CN2CCN(C(c3ccc(Cl)cc3)c3ccc(Cl)cc3)CC2)nc2ccccc12 [Formula 37] | 77.0%
CN(C)CCCNc1nc(CN(C)Cc2ccc(Cl)cc2)nc2ccccc12 [Formula 74] | 55.1%
CN(C)CCCNc1nc(CN(C)Cc2ccc(C#N)cc2)nc2ccccc12 [Formula 70] | 54.1%
CN(C)CCC[C@H](Nc1nc(CN2CCN(C(c3ccc(Cl)cc3)c3ccc(Cl)cc3)CC2)nc2ccccc12)C(N)=O [Formula 118] | 58.6%
CN(C)[C@@H]1CCN(c2nc(CN3CCN(C(c4ccc(Cl)cc4)c4ccc(Cl)cc4)CC3)nc3ccccc23)C1 [Formula 50] | 53.0%
CN(C)CCCNc1nc(CN(C)Cc2cccc(Cl)c2Cl)nc2ccccc12 [Formula 86] | 61.1%
CN(C)CCCNc1nc(CN(C)C2C[C@@H]3CC[C@H]2C3)nc2ccccc12 (stereo partly drawn) [Formula 98] | 64.4%
CN(C)CCCNc1nc(CN(C)Cc2cccs2)nc2ccccc12 [Formula 65] | 65.5%
CN(C)CCCNc1nc(CN(C)Cc2ccccc2Sc2ccc(Cl)cc2)nc2ccccc12 [Formula 94] | 53.7%
CN(C)CCCNc1nc(CN(C)Cc2c(F)cccc2F)nc2ccccc12 [Formula 75] | 58.9%
Cc1cccc(C)c1CN(C)Cc1nc(NCCCN(C)C)c2ccccc2n1 [Formula 72] | 69.7%
CN(C)CCCNc1nc(CN(Cc2ccccc2)Cc2ccccc2)nc2ccccc12 [Formula 113] | 61.7%
CN(Cc1ccccc1)Cc1nc2ccccc2c(=O)[nH]1 [Formula 34] | 36.8%
CN(C)CCCNc1nc(CN(C)C2CCCC(C(F)(F)F)C2)nc2ccccc12 (stereo not drawn) [Formula 105] | 57.7%
CCC(C)(C)C1CCC(N(C)Cc2nc(NCCCN(C)C)c3ccccc3n2)CC1 (stereo not drawn) [Formula 107] | 6.3 (2) %
COC(=O)[C@@H](Nc1nc(CNC(=O)Nc2cc(Cl)cc(Cl)c2)nc2ccccc12)C(C)C [Formula 56] | 52.3%
COc1ccc(NC(=O)N2CCN(Cc3nc(NCCCN(C)C)c4ccccc4n3)CC2)cc1 [Formula 16] | 38.0%
CN(C)CCCNc1nc(CN(C)C2CCC3(CC2)OCCO3)nc2ccccc12 [Formula 104] | 23.0 (2) %
CN(C)CCCNc1nc(CN(C)Cc2cccn2S(=O)(=O)c2ccccc2)nc2ccccc12 [Formula 93] | 45.1 (3) %
CCOC(=O)C1CC1CN(C)Cc1nc(NCCCN(C)C)c2ccccc2n1 (stereo not drawn) [Formula 76] | 57.8%
CN(Cc1ccccc1)c1nc(CN2CCN(C(c3ccc(Cl)cc3)c3ccc(Cl)cc3)CC2)nc2ccccc12 [Formula 43] | 80.7%
CN(C)CCCNc1nc(CN(C)Cc2nccs2)nc2ccccc12 [Formula 66] | 37.0 (3) %
